# Measurements published in patent US20250034216A1, “STEREOSELECTIVE COVALENT LIGANDS FOR ONCOGENIC AND IMMUNOLOGICAL PROTEINS” (The Scripps Research Institute, priority 2021, published 2025).
# Legend:
# Assay in all cases: IA-DTB cysteine engagement
# Format in all cases: binding
# Settings in all cases: 22Rv1 cells, 20 μM probe, 1 h, relative to DMSO
# TANC1_C800 = biological target: T1, TANC1_C800 (Homo sapiens, UniProt Q9C0D5)
# T1 construct: endogenous in cells; host or cells: 22Rv1
# In short: (§1)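 Probe-exposed cells were lysed, IA-DTB-labeled, trypsinized and streptavidin-enriched. Multiplexed TMT quantitation gave engagement ratios versus DMSO, with non-tryptic peptides excluded and intensities normalized to median summed signal.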
# LMNA_C570 = biological target: T2, LMNA_C570 (Homo sapiens, UniProt P02545)
# T2 construct: endogenous in cells; host or cells: 22Rv1
# T2 sequence (P02545 1-664): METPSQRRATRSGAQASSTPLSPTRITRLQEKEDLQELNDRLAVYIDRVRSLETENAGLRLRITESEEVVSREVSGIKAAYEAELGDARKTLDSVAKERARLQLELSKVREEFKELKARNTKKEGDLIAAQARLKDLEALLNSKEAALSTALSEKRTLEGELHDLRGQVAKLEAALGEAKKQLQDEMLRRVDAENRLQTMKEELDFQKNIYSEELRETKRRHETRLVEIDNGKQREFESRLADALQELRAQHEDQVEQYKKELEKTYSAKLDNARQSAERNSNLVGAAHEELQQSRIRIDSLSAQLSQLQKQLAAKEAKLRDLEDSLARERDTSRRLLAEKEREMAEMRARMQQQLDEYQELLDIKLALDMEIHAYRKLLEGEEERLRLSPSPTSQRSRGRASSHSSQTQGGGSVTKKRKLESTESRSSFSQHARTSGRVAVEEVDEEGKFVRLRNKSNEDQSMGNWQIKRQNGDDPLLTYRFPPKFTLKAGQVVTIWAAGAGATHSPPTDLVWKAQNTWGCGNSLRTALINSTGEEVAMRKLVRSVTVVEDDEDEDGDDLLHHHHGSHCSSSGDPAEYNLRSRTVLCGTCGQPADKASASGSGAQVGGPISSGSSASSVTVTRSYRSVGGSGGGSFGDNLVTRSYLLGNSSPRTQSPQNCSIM
# In short: as §1
# OCIAD1_C98 = biological target: T3, OCIAD1_C98 (Homo sapiens, UniProt Q9NX40)
# T3 construct: endogenous in cells; host or cells: 22Rv1
# T3 sequence (Q9NX40 1-245): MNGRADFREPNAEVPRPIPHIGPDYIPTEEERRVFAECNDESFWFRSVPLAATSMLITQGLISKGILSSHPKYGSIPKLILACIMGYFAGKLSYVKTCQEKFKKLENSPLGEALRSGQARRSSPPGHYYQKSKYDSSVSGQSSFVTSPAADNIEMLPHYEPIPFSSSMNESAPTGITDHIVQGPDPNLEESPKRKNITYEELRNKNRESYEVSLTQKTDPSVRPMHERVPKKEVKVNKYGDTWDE
# In short: as §1
# T1 sequence (Q9C0D5 whole entry): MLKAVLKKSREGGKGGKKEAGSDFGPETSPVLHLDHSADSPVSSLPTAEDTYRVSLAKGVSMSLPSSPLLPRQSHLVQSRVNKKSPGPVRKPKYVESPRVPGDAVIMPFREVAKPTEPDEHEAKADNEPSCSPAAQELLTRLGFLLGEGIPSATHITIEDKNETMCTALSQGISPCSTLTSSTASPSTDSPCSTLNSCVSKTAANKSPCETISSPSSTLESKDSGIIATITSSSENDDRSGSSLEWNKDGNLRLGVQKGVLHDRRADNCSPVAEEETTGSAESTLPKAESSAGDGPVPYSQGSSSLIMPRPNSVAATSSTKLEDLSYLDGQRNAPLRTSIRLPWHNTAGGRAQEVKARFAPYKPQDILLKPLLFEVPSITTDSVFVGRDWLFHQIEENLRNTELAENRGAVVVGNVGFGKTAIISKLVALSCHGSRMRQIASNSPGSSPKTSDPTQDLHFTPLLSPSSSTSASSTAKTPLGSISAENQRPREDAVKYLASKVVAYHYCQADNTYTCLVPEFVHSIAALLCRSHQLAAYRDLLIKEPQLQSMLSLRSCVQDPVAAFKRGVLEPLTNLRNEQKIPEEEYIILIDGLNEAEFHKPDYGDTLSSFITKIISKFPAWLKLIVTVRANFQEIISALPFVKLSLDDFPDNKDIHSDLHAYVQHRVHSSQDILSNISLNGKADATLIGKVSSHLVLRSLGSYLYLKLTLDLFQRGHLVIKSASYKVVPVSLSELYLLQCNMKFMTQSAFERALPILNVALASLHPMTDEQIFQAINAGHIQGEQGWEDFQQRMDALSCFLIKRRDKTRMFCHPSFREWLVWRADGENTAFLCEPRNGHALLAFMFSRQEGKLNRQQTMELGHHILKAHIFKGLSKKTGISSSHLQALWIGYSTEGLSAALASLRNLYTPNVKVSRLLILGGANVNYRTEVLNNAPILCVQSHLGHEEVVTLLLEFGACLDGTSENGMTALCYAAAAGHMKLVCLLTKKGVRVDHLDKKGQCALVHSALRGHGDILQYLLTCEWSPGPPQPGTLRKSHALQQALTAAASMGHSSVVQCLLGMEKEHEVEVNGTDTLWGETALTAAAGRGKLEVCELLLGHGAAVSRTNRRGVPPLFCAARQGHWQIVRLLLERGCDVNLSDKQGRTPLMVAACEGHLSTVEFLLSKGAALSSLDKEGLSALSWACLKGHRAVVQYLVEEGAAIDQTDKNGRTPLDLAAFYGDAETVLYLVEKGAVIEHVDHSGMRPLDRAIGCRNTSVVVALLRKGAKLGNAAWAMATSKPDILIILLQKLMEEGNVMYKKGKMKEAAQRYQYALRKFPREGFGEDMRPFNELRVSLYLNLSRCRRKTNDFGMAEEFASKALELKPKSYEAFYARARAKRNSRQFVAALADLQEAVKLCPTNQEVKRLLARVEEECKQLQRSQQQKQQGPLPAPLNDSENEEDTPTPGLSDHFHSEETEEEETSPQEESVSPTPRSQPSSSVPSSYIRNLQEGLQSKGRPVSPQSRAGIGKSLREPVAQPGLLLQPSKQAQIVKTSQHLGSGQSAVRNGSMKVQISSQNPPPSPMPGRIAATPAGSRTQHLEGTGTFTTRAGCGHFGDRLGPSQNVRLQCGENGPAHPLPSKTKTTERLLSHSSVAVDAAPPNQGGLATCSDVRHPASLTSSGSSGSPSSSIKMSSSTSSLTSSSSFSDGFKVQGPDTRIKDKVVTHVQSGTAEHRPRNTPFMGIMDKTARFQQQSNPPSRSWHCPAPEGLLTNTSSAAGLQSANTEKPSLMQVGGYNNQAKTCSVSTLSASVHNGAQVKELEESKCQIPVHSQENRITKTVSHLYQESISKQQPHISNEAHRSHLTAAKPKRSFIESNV
% engagement TANC1_C800 (TANC1_C800),% engagement LMNA_C570 (LMNA_C570),% engagement OCIAD1_C98 (OCIAD1_C98),Compound
83.5%,70.5%,72.5%,"C=CC(=O)N1C[C@H](c2ccc(Br)cc2)[C@H]1C(=O)Nc1cccc2cccnc12 [MY-3B, (2S,3S)-1-acryloyl-3-(4-bromophenyl)-N-(quinolin-8-yl)azetidine-2-carboxamide]"
3%,70.5%,19%,"C=CC(=O)N1C[C@H](c2ccc(Br)cc2)[C@@H]1C(=O)Nc1cccc2cccnc12 [MY-1B, (2R,3S)-1-acryloyl-3-(4-bromophenyl)-N-(quinolin-8-yl)azetidine-2-carboxamide]"
12.5%,75.5%,12.5%,"C=CC(=O)N1C[C@H](c2ccc(Br)cc2)[C@H]1C(=O)Nc1cccc2cccnc12 [MY-3A, (2S,3S)-1-acryloyl-3-(4-bromophenyl)-N-(quinolin-8-yl)azetidine-2-carboxamide]"
−2%,75%,26%,"C=CC(=O)N1C[C@@H](c2ccc(Br)cc2)[C@H]1C(=O)Nc1cccc2cccnc12 [MY-1A, (2S,3R)-1-acryloyl-3-(4-bromophenyl)-N-(quinolin-8-yl)azetidine-2-carboxamide]"
